Data taken from US9695155B2, “Herbicidal substituted pyrimidinyloxy benzene compounds” (E. I. DU PONT DE NEMOURS AND COMPANY, priority 2013, dated 2017).

Columns and labels:
morningglory = assay: Test E preemergence; assay type: in vivo, Ipomoea coccinea; details: for Morningglory plant response rating: scale 0 to 100 (0 no effect, 100 complete control); for Plant response rating, Morningglory: scale 0 to 100, 0 no effect, 100 complete control
In short: (§1)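 Test chemicals formulated in a non-phytotoxic solvent mixture containing a surfactant were applied preemergence to seeds in silt loam soil or postemergence to plants at the 1- to 4-leaf stage in potting mix. After 14 to 21 days in a greenhouse, injury was visually rated against controls on a 0-100 scale (0 = no effect, 100 = complete control).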

wild poinsettia [1] = assay: Test E preemergence; assay type: in vivo, Euphorbia heterophylla; details: for Poinsettia, Wild plant response rating: scale 0 to 100 (0 no effect, 100 complete control); for Plant response rating, Poinsettia, Wild: scale 0 to 100, 0 no effect, 100 complete control
In short: as §1

Brazilian crabgrass = assay: Test E preemergence; assay type: in vivo, Digitaria horizontalis; details: for Crabgrass, Brazil plant response rating: scale 0 to 100 (0 no effect, 100 complete control); for Plant response rating, Crabgrass, Brazil: scale 0 to 100, 0 no effect, 100 complete control
In short: as §1

green foxtail = assay: Test E preemergence; assay type: in vivo, Setaria viridis; details: for Foxtail, Green plant response rating: scale 0 to 100 (0 no effect, 100 complete control); for Plant response rating, Foxtail, Green: scale 0 to 100, 0 no effect, 100 complete control
In short: as §1

Italian ryegrass = assay: Test E postemergence; assay type: in vivo, Lolium multiflorum; details: Postemergence, scale 0 to 100
In short: as §1

wild poinsettia [2] = assay: Test E postemergence; assay type: in vivo, Euphorbia heterophylla; details: Postemergence, scale 0 to 100
In short: as §1

johnsongrass = assay: Test E preemergence; assay type: in vivo, Sorghum halepense; details: for Johnsongrass plant response rating: scale 0 to 100 (0 no effect, 100 complete control); for Plant response rating, Johnsongrass: scale 0 to 100, 0 no effect, 100 complete control
In short: as §1

fall panicum = assay: Test E preemergence; assay type: in vivo, Panicum dichotomiflorum; details: for Panicum, Fall plant response rating: scale 0 to 100 (0 no effect, 100 complete control); for Plant response rating, Panicum, Fall: scale 0 to 100, 0 no effect, 100 complete control
In short: as §1

velvetleaf = assay: Test E preemergence; assay type: in vivo, Abutilon theophrasti; details: for Velvetleaf plant response rating: scale 0 to 100 (0 no effect, 100 complete control); for Plant response rating, Velvetleaf: scale 0 to 100, 0 no effect, 100 complete control
In short: as §1

nightshade = assay: Test E preemergence; assay type: in vivo, Solanum ptycanthum; details: for Nightshade plant response rating: scale 0 to 100 (0 no effect, 100 complete control); for Plant response rating, Nightshade: scale 0 to 100, 0 no effect, 100 complete control
In short: as §1

palmer pigweed = assay: Test E postemergence; assay type: in vivo, Amaranthus palmeri; details: Postemergence, scale 0 to 100
In short: as §1

giant foxtail = assay: Test E preemergence; assay type: in vivo, Setaria faberii; details: for Foxtail, Giant plant response rating: scale 0 to 100 (0 no effect, 100 complete control); for Plant response rating, Foxtail, Giant: scale 0 to 100, 0 no effect, 100 complete control
In short: as §1

large (Lg) crabgrass = assay: Test E preemergence; assay type: in vivo, Digitaria sanguinalis; details: for Crabgrass, Large plant response rating: scale 0 to 100 (0 no effect, 100 complete control); for Plant response rating, Crabgrass, Large: scale 0 to 100, 0 no effect, 100 complete control
In short: as §1

barnyardgrass = assay: Test E preemergence; assay type: in vivo, Echinochloa crus-galli; details: for Barnyardgrass plant response rating: scale 0 to 100 (0 no effect, 100 complete control); for Plant response rating, Barnyardgrass: scale 0 to 100, 0 no effect, 100 complete control
In short: as §1

field bindweed = assay: Test E postemergence; assay type: in vivo, Convolvulus arvensis; details: Postemergence, scale 0 to 100
In short: as §1

sandbur = assay: Test E postemergence; assay type: in vivo, Cenchrus echinatus; details: Postemergence, scale 0 to 100
In short: as §1

N#Cc1cccc(Oc2ncc(Cl)cn2)c1-n1cc(Cl)cn1 [Compound 72]
Morningglory plant response rating (morningglory; 16 g ai/ha): 0 | Morningglory plant response rating (morningglory; 31 g ai/ha): 0 | Morningglory plant response rating (morningglory; 62 g ai/ha): 15 | Plant response rating, Morningglory (morningglory; 125 g ai/ha): 15 | Plant response rating, Morningglory (morningglory; 250 g ai/ha): 35 | Poinsettia, Wild plant response rating (wild poinsettia [1]; 16 g ai/ha): 15 | Poinsettia, Wild plant response rating (wild poinsettia [1]; 31 g ai/ha): 5 | Poinsettia, Wild plant response rating (wild poinsettia [1]; 62 g ai/ha): 15 | Plant response rating, Poinsettia, Wild (wild poinsettia [1]; 125 g ai/ha): 70 | Plant response rating, Poinsettia, Wild (wild poinsettia [1]; 250 g ai/ha): 70 | Crabgrass, Brazil plant response rating (Brazilian crabgrass; 16 g ai/ha): 90 | Crabgrass, Brazil plant response rating (Brazilian crabgrass; 31 g ai/ha): 98 | Crabgrass, Brazil plant response rating (Brazilian crabgrass; 62 g ai/ha): 100 | Plant response rating, Crabgrass, Brazil (Brazilian crabgrass; 125 g ai/ha): 100 | Plant response rating, Crabgrass, Brazil (Brazilian crabgrass; 250 g ai/ha): 100 | Foxtail, Green plant response rating (green foxtail; 16 g ai/ha): 30 | Foxtail, Green plant response rating (green foxtail; 31 g ai/ha): 30 | Foxtail, Green plant response rating (green foxtail; 62 g ai/ha): 95 | Plant response rating, Foxtail, Green (green foxtail; 125 g ai/ha): 100 | Plant response rating, Foxtail, Green (green foxtail; 250 g ai/ha): 100 | Plant response rating, Ryegrass, Italian (Italian ryegrass; 62 g ai/ha): 0 | Plant response rating, Ryegrass, Italian (Italian ryegrass; 125 g ai/ha): 5 | Plant response rating, Poinsettia, Wild (wild poinsettia [2]; 62 g ai/ha): 55 | Plant response rating, Poinsettia, Wild (wild poinsettia [2]; 125 g ai/ha): 60 | Johnsongrass plant response rating (johnsongrass; 16 g ai/ha): 0 | Johnsongrass plant response rating (johnsongrass; 31 g ai/ha): 0 | Johnsongrass plant response rating (johnsongrass; 62 g ai/ha): 40 | Plant response rating, Johnsongrass (johnsongrass; 125 g ai/ha): 95 | Plant response rating, Johnsongrass (johnsongrass; 250 g ai/ha): 98 | Panicum, Fall plant response rating (fall panicum; 16 g ai/ha): 0 | Panicum, Fall plant response rating (fall panicum; 31 g ai/ha): 65 | Panicum, Fall plant response rating (fall panicum; 62 g ai/ha): 98 | Plant response rating, Panicum, Fall (fall panicum; 125 g ai/ha): 100 | Plant response rating, Panicum, Fall (fall panicum; 250 g ai/ha): 100 | Velvetleaf plant response rating (velvetleaf; 16 g ai/ha): 0 | Velvetleaf plant response rating (velvetleaf; 31 g ai/ha): 0 | Velvetleaf plant response rating (velvetleaf; 62 g ai/ha): 40 | Plant response rating, Velvetleaf (velvetleaf; 125 g ai/ha): 65 | Plant response rating, Velvetleaf (velvetleaf; 250 g ai/ha): 100 | Nightshade plant response rating (nightshade; 16 g ai/ha): 0 | Nightshade plant response rating (nightshade; 31 g ai/ha): 65 | Nightshade plant response rating (nightshade; 62 g ai/ha): 100 | Plant response rating, Nightshade (nightshade; 125 g ai/ha): 98 | Plant response rating, Nightshade (nightshade; 250 g ai/ha): 100 | Plant response rating, Pigweed, Palmer (palmer pigweed; 62 g ai/ha): 75 | Plant response rating, Pigweed, Palmer (palmer pigweed; 125 g ai/ha): 90 | Foxtail, Giant plant response rating (giant foxtail; 16 g ai/ha): 35 | Foxtail, Giant plant response rating (giant foxtail; 31 g ai/ha): 35 | Foxtail, Giant plant response rating (giant foxtail; 62 g ai/ha): 95 | Plant response rating, Foxtail, Giant (giant foxtail; 125 g ai/ha): 98 | Plant response rating, Foxtail, Giant (giant foxtail; 250 g ai/ha): 100 | Crabgrass, Large plant response rating (large (Lg) crabgrass; 16 g ai/ha): 50 | Crabgrass, Large plant response rating (large (Lg) crabgrass; 31 g ai/ha): 80 | Crabgrass, Large plant response rating (large (Lg) crabgrass; 62 g ai/ha): 100 | Plant response rating, Crabgrass, Large (large (Lg) crabgrass; 125 g ai/ha): 100 | Plant response rating, Crabgrass, Large (large (Lg) crabgrass; 250 g ai/ha): 100 | Barnyardgrass plant response rating (barnyardgrass; 16 g ai/ha, preemergence): 0 | Barnyardgrass plant response rating (barnyardgrass; 31 g ai/ha, preemergence): 0 | Plant response rating, Barnyardgrass (barnyardgrass; Preemergence, 62 g ai/ha): 15 | Plant response rating, Barnyardgrass (barnyardgrass; preemergence, 125 g ai/ha): 35 | Plant response rating, Barnyardgrass (barnyardgrass; preemergence, 250 g ai/ha): 90 | Plant response rating, Field Bindweed (field bindweed; 62 g ai/ha): 70 | Plant response rating, Field Bindweed (field bindweed; 125 g ai/ha): 80 | Plant response rating, Sandbur (sandbur; 62 g ai/ha): 0 | Plant response rating, Sandbur (sandbur; 125 g ai/ha): 0
